Data: patent publication US9132130B2, “Purine derivative and antitumor agent using same” (ZENYAKU KOGYO KABUSHIKI KAISHA, priority 2009, dated 2015)

Tests used:
Type in all cases: cell-based
[1] = system: A549 cells (human lung cancer cells); test: in vitro antitumor activity test, A549 cells, XTT colorimetry; details: cultured 72 hours
Description: (§1) WiDr cells (human colon cancer cells) subcultured in a culture medium composed of a MEM medium added with 10% fetal bovine serum, 25 mM HEPES and 0.1 mg/ml kanamycin under the conditions of 37° C. and 5% carbon dioxide gas were made into single floating cells by treating with trypsin/EDTA, and a single cell suspension of 3×10^4 cells per 1 ml was prepared using the MEM medium (added with 10% fetal bovine serum, 25 mM HEPES and 0.1 mg/ml kanamycin). After dissolving the test compounds in DMSO, they were diluted in a RPMI 1640 medium (added with 10% fetal bovine serum, 25 mM HEPES and 0.1 mg/ml kanamycin) and prepared so that the concentrations were 2.0×10^−9 to 2.0×10^−4 M.
(§2) 0.1 ml of the cell suspension was placed into each well of 96-well microplates, cultured for 24 hours to allow the cells to adhere to the microplates, then 0.1 ml of the sample solutions were added, and cultured for 72 hours at 37° C. in 5% carbon dioxide gas.
(§3) Afterwards, the level of growth inhibition at various sample concentrations was obtained using XTT colorimetry, and concentrations at which growth was inhibited by 50% (GI50 values [μM]) were calculated.
(§4) In addition, cells other than WiDr cells that were used, and the condition for preparing each single cell suspension were as follows.
A549 cells (human lung cancer cells): 2×10^4 cells/ml

[2] = system: P388 cells (mouse leukemia cells); test: in vitro antitumor activity test, P388 cells, XTT colorimetry; details: cultured 72 hours
Description: P388 cells (mouse leukemia cells) passaged in the abdominal cavity of DBA/2 mice were extracted with ascitic fluid, and cultured in a RPMI 1640 medium (added with 10% fetal bovine serum, 25 mM HEPES, 0.1 mg/ml kanamycin and 5 μM 2-hydroxyethyldisulfide) at 37° C. in 5% carbon dioxide gas. After culturing for 16 hours, floating P388 cells were made into a single cell suspension of 4×10^4 cells per 1 ml using the same RPMI 1640 medium as given above. The test substances were dissolved in DMSO, then diluted in a RPMI 1640 medium (added with 10% fetal bovine serum, 25 mM HEPES and 0.1 mg/ml kanamycin) and prepared so that the concentrations were 2.0×10^−9 to 2.0×10^−4 M.
0.1 ml of the cell suspension was placed into each well of 96-well microplates, then 0.1 ml of the sample solutions were added, and cultured for 72 hours at 37° C. in 5% carbon dioxide gas.
as §3

[3] = system: WiDr cells (human colon cancer cells); test: in vitro antitumor activity test, WiDr cells, XTT colorimetry; details: cultured 72 hours
Description: as §1, §2, §3

[4] = system: PC-3 cells (human prostate cancer cells); test: in vitro antitumor activity test, PC-3 cells, XTT colorimetry; details: PC-3 human prostate cancer cells, cultured 72 hours
Description: as §1, §2, §3, §4
PC-3 cells (human prostate cancer cells): 2×10^4 cells/ml

[5] = system: B16F10 cells (mouse melanoma [malignant melanoma] cells); test: in vitro antitumor activity test, B16F10 cells, XTT colorimetry; details: B16-F10, cultured 72 hours
Description: as §1, §2, §3, §4
B16F10 cells (mouse melanoma [malignant melanoma] cells): 1×10^4 cells/ml

CCc1nc2c(N(C)C)nc(SCc3ccc(OC)c(C#N)c3)nc2n1C [Compound 69, 2-(3-cyano-4-methoxybenzylsulfanyl)-6-dimethylamino-8-ethyl-9-methyl-9H-purine]
GI50 [1]: 150 nM
GI50 [2]: 110 nM
GI50 [3]: 150 nM
GI50 [4]: 120 nM
GI50 [5]: 200 nM

C/C=C/c1nc(SCc2ccc(OC)cc2)nc2c1ncn2C [Compound 163, 2-(4-methoxybenzylsulfanyl)-9-methyl-6-(1-trans-propenyl)-9H-purine]
GI50 [1]: 670 nM
GI50 [2]: 280 nM
GI50 [3]: 510 nM
GI50 [4]: 870 nM
GI50 [5]: 540 nM

COc1ccc(CSc2nc(N(C)C(C)=O)c3ncn(C)c3n2)cc1 [Compound 61, 6-(N-acetyl-N-methylamino)-2-(4-methoxybenzylsulfanyl)-9-methyl-9H-purine]
GI50 [1]: 520 nM
GI50 [2]: 330 nM
GI50 [3]: 460 nM
GI50 [4]: 890 nM
GI50 [5]: 840 nM

C/C=C/c1nc(SCc2ccc(OC)c([N+](=O)[O-])c2)nc2c1ncn2C [Compound 171, 2-(4-methoxy-3-nitrobenzylsulfanyl)-9-methyl-6-(1-trans-propenyl)-9H-purine]
GI50 [1]: 270 nM
GI50 [2]: 220 nM
GI50 [3]: 370 nM
GI50 [4]: 470 nM
GI50 [5]: 560 nM

CCc1nc2c(N3C=COCC3)nc(SCc3ccc(OC)c(F)c3)nc2n1C [Compound 157, 6-(2,3-dihydro[1,4]oxadin-4-yl)-8-ethyl-2-(3-fluoro-4-methoxybenzylsulfanyl)-9-methyl-9H-purine]
GI50 [1]: 60 nM
GI50 [2]: 40 nM
GI50 [3]: 80 nM
GI50 [4]: 90 nM
GI50 [5]: 80 nM

CCc1nc2c(N3C=COCC3)nc(SCc3ccc(OC)cc3)nc2n1C [Compound 148, 6-(2,3-dihydro-[1,4]oxadin-4-yl)-8-ethyl-2-(4-methoxybenzylsulfanyl)-9-methyl-9H-purine]
GI50 [1]: 240 nM
GI50 [2]: 90 nM
GI50 [3]: 130 nM
GI50 [4]: 130 nM
GI50 [5]: 290 nM

CCc1nc2c(N3CCOCC3)nc(SCc3ccc(C)cc3)nc2n1C [Compound 8, 8-ethyl-9-methyl-2-(4-methylbenzylsulfanyl)-6-morpholino-9H-purine]
GI50 [1]: 2200 nM
GI50 [2]: 1020 nM
GI50 [3]: 1470 nM
GI50 [4]: 610 nM
GI50 [5]: 1700 nM

COc1ccc(CSc2nc(-c3ccco3)c3ncn(C)c3n2)cc1 [Compound 167, 6-(2-furyl)-2-(4-methoxybenzylsulfanyl)-9-methyl-9H-purine]
GI50 [1]: 1490 nM
GI50 [2]: 1870 nM
GI50 [3]: 1750 nM
GI50 [4]: 1800 nM
GI50 [5]: 2470 nM

COc1ccc(CSc2nc(N(C)C)c3ncn(C)c3n2)cc1N [Compound 19, 2-(3-amino-4-methoxybenzylsulfanyl)-6-dimethylamino-9-methyl-9H-purine]
GI50 [1]: 450 nM
GI50 [2]: 320 nM
GI50 [3]: 4040 nM
GI50 [4]: 400 nM
GI50 [5]: 450 nM

COc1ccc(CSc2nc(N(C)OC)c3ncn(C)c3n2)cc1N [Compound 145, 2-(3-amino-4-methoxybenzylsulfanyl)-6-(N-methoxy-N-methylamino)-9-methyl-9H-purine]
GI50 [1]: 80 nM
GI50 [2]: < 40 nM
GI50 [3]: 810 nM
GI50 [4]: 130 nM
GI50 [5]: 190 nM

CCc1nc2c(N(C)C)nc(SCc3ccc(OC)c(NC(C)=O)c3)nc2n1C [Compound 60, 2-(3-acetylamino-4-methoxybenzylsulfanyl)-6-dimethylamino-8-ethyl-9-methyl-9H-purine]
GI50 [1]: 1400 nM
GI50 [2]: 610 nM
GI50 [3]: 1300 nM
GI50 [4]: 870 nM
GI50 [5]: 1000 nM

CCc1nc2c(N3CCOCC3)nc(SCc3ccc(OC)c(F)c3)nc2n1C [Compound 14, 8-ethyl-2-(3-fluoro-4-methoxybenzylsulfanyl)-9-methyl-6-morpholino-9H-purine]
GI50 [1]: 120 nM
GI50 [2]: 200 nM
GI50 [3]: 260 nM
GI50 [4]: 160 nM
GI50 [5]: 340 nM

COc1ccc(CSc2nc(N(C)C)c3ncn(C)c3n2)cc1C#N [Compound 87, 2-(3-cyano-4-methoxybenzylsulfanyl)-6-dimethylamino-9-methyl-9H-purine]
GI50 [1]: 50 nM
GI50 [2]: 20 nM
GI50 [3]: 40 nM
GI50 [4]: 40 nM
GI50 [5]: 80 nM

CCOc1ccc(CSc2nc(N(C)C)c3ncn(C)c3n2)cc1N [Compound 140, 2-(3-amino-4-ethoxybenzylsulfanyl)-6-dimethylamino-9-methyl-9H-purine]
GI50 [1]: 90 nM
GI50 [2]: 50 nM
GI50 [3]: 360 nM
GI50 [4]: 110 nM
GI50 [5]: 160 nM

CCc1nc2c(N3CCOCC3)nc(SCc3ccc(OC)c(C#N)c3)nc2n1CC [Compound 94, 2-(3-cyano-4-methoxybenzylsulfanyl)-8,9-diethyl-6-morpholino-9H-purine]
GI50 [1]: 100 nM
GI50 [2]: 80 nM
GI50 [3]: 80 nM
GI50 [4]: 110 nM
GI50 [5]: 140 nM

C=Cc1cc(CSc2nc(N3CCOCC3)c3nc(CC)n(C)c3n2)ccc1OC [Compound 79, 8-ethyl-2-(4-methoxy-3-vinylbenzylsulfanyl)-9-methyl-6-morpholino-9H-purine]
GI50 [1]: 1400 nM
GI50 [2]: 1000 nM
GI50 [3]: 1300 nM
GI50 [4]: 440 nM
GI50 [5]: 1500 nM

CCNc1nc(SCc2ccc(OC)c(F)c2)nc2c1ncn2C [Compound 91, 6-ethylamino-2-(3-fluoro-4-methoxybenzylsulfanyl)-9-methyl-9H-purine]
GI50 [1]: 140 nM
GI50 [2]: 90 nM
GI50 [3]: 90 nM
GI50 [4]: 340 nM
GI50 [5]: 140 nM

C/C=C/c1nc(SCc2ccc(OC)c(N)c2)nc2c1ncn2C [Compound 173, 2-(3-amino-4-methoxybenzylsulfanyl)-9-methyl-6-(1-trans-propenyl)-9H-purine]
GI50 [1]: 160 nM
GI50 [2]: 90 nM
GI50 [3]: 1510 nM
GI50 [4]: 380 nM
GI50 [5]: 250 nM

CCc1nc2c(N3CCOCC3)nc(SC(c3ccccc3)c3ccccc3)nc2n1C [Compound 100, 2-benzhydrylsulfanyl-8-ethyl-9-methyl-6-morpholino-9H-purine]
GI50 [1]: 3900 nM
GI50 [2]: 3290 nM
GI50 [3]: 6110 nM
GI50 [4]: 150 nM
GI50 [5]: 4630 nM

CCc1nc2c(N(C)C)nc(SCc3ccc(OC)c(N)c3)nc2n1C [Compound 23, 2-(3-amino-4-methoxybenzylsulfanyl)-6-dimethylamino-8-ethyl-9-methyl-9H-purine]
GI50 [1]: 250 nM
GI50 [2]: 230 nM
GI50 [3]: 440 nM
GI50 [4]: 130 nM
GI50 [5]: 500 nM

COc1ccc(CSc2nc(N(C)C)c3ncn(C)c3n2)cc1F [Compound 86, 6-dimethylamino-2-(3-fluoro-4-methoxybenzylsulfanyl)-9-methyl-9H-purine]
GI50 [1]: 50 nM
GI50 [2]: 30 nM
GI50 [3]: 40 nM
GI50 [4]: 50 nM
GI50 [5]: 60 nM

COc1ccc(CSc2nc(N3C=COCC3)c3ncn(C)c3n2)cc1N [Compound 150, 2-(3-amino-4-methoxybenzylsulfanyl)-6-(2,3,-dihydro-[1,4]oxadin-4-yl)-9-methyl-9H-purine]
GI50 [1]: 150 nM
GI50 [2]: 110 nM
GI50 [3]: 780 nM
GI50 [4]: 150 nM
GI50 [5]: 300 nM

COc1ccc(CNc2nc(N3CCOCC3)c3ncn(C)c3n2)cc1 [Compound B, reference compound]
GI50 [1]: > 10000 nM
GI50 [2]: > 10000 nM
GI50 [3]: > 10000 nM
GI50 [4]: > 10000 nM
GI50 [5]: > 10000 nM

COc1ccc(CSc2nc(-c3ccc([N+](=O)[O-])cc3)c3ncn(C)c3n2)cc1 [Compound 166, 2-(4-methoxybenzylsulfanyl)-9-methyl-6-(4-nitrophenyl)-9H-purine]
GI50 [1]: 670 nM
GI50 [2]: 280 nM
GI50 [3]: 820 nM
GI50 [4]: 1390 nM
GI50 [5]: 1550 nM

COc1ccc(CSc2nc(N3CCOCC3)c3ncn(C)c3n2)cc1 [Compound 9, 2-(4-methoxybenzylsulfanyl)-9-methyl-6-morpholino-9H-purine]
GI50 [1]: 570 nM
GI50 [2]: 300 nM
GI50 [3]: 400 nM
GI50 [4]: 380 nM
GI50 [5]: 1170 nM

CCN(CC)c1nc(SCc2ccc(OC)cc2)nc2c1ncn2C [Compound 25, 6-diethylamino-2-(4-methoxybenzylsulfanyl)-9-methyl-9H-purine]
GI50 [1]: 950 nM
GI50 [2]: 680 nM
GI50 [3]: 820 nM
GI50 [4]: 1130 nM
GI50 [5]: 1380 nM
